The source of these data is article PMC12257413, “Discovery of a Novel sp^3‑Rich M1 Positive Allosteric Modulators (PAMs) Chemotype via Scaffold Hopping” (ACS Medicinal Chemistry Letters, 2025).

By AUC is commonly meant concentration integrated over time. Higher therefore signals high exposure. Broadly, the MRT is a mean duration of stay, worked out from the concentration-time curve. Usually half-life stands for the time in which the quantity being followed falls by half. A higher half-life goes with slow loss.

Structures are written as SMILES.

Data set [1] in a line: Intrinsic clearance in human hepatic microsomes, predicted hepatic clearance. It is filed as in vitro ADME. The conditions noted are these: predicted hepatic clearance from human hepatic microsomes. The protocol:
A similar approach was used to determine the degree of brain homogenate binding, which employed the same methodology and procedure with the following modifications: 1) a final compound concentration of 1 μM was used, 2) naïve rat brains were homogenized in DPBS (1:3 composition of brain: DPBS, w/w) using a Mini-Bead Beater™ machine in order to obtain brain homogenate, which was then treated in the same manner as the plasma samples in the previously described plasma protein binding assay. […]
same manner as the plasma samples in the previously described plasma protein binding assay. Fraction unbound for both plasma and brain samples was determined using Equation 4.
Equation 4 Determination of fraction unbound in plasma.
The diluted fraction unbound (fu2) in brain was calculated in the same manner by using brain homogenate rather than plasma. Undiluted fraction unbound for the brain was calculated using Equation 5 […]
Equation 5 Determination of fraction unbound in brain. […]
Human or rat hepatic microsomes (0.5 mg/mL) and 1 µM test compound were incubated in 100 mM potassium phosphate pH 7.4 buffer with 3 mM MgCl 2 at 37 °C with constant shaking. […] The in vitro half-life (1/2, min, Eq. 1), intrinsic clearance (CL int, mL/min/kg, Eq. 2), and subsequent predicted hepatic clearance (CLhep, mL/min/kg, Eq. 3) was determined employing the following equations: […]

A short description of data set [2]: Rat in vivo PK (PK/PBL cassette). The following applies: for AUC / MRT / half-life / Vd: plasma; for clearance: plasma clearance, read-out: CLp; for Vd: read-out: Vss. From the text:
4 Detailed In Vitro and In Vivo Profiles for Selected M1 PAMs ^a | column: Property; 17k; 17g

The nature of data set [3]: Plasma protein binding by equilibrium dialysis, human plasma. It is filed as in vitro ADME. The following applies: fraction unbound in human plasma. The method, then: for 2 seconds (excitation, 480 nm; emission, 530 nm), first add occurred by adding 20 µL of test compound to the cells, and the response was measured for 140 seconds. This is followed by second add; 10 µL (5X) of an EC20 concentration of ACh agonist was added to the cells, and the response of the cells was measured for 125 seconds. Immediately, the third add occurred by adding 12 ul assay buffer or 5X of an EC max concentration of ACh and the response of the cells was measured for 90 seconds. Assay buffer was added to the wells that incubated with compounds followed by EC20 concentration of ACh. […] Calcium fluorescence was recorded as fold over basal fluorescence and raw data were normalized to the maximal response to ACh agonist. Potency (EC50) and maximum response (% ACh Max) for compounds was determined using a four -parameter logist ical equation using GraphPad Prism (La Jolla, CA) or the Dotmatics software platform ( Woburn, MA) : […]
The protein binding of each compound was determined in plasma via equilibrium dialysis employing rapid equilibrium dialysis (RED) plates (ThermoFisher Scientific, Rochester, NY). […]
same manner as the plasma samples in the previously described plasma protein binding assay. Fraction unbound for both plasma and brain samples was determined using Equation 4. […]

For the compound `Cn1cc(-c2ccc(Cc3cc(C(=O)N[C@H]4CCOC[C@@H]4O)nn3C3CCCC3)cc2)cn1` [17g], the “Human CLHEP” value in data set [1] was 6.7 mL/min/kg. For the same compound, in data set [2], the area under the curve (AUC) was 160 ng·h/mL, the MRT was 76.8 min, the half-life was 72.6 min and the clearance was 20.8 mL/min/kg. Moreover, in data set [2], the Vd was 1.59 L/kg. Further, the Human fuplasma in data set [3] is 0.08.

As for `Cn1cc(-c2ccc(Cc3cc(C(=O)N[C@H]4CCCC[C@@H]4O)nn3C3CCCC3)cc2)cn1` [17k], the “Human CLHEP” value in data set [1] was 14.3 mL/min/kg. For the same compound, in data set [2], the AUC turned out to be 74.4 ng·h/mL, the MRT was 39 min, the half-life is 37.8 min and the clearance came to 56 mL/min/kg. The Vd in data set [2] came to 2.2 L/kg. In data set [3], this compound came in with a Human fuplasma of 0.01.
